Counter-ions that a name gives are not always drawn. Like-named read-outs stand apart in the source and are kept apart here.
Legend:
MHV (strain MHV-A59) = conditions: L929 cells
SARS-CoV E protein = SARS-CoV E protein (Severe acute respiratory syndrome coronavirus, UniProt P59637); format: cell-based
229E-CoV E-protein = 229E-CoV E-protein (Human coronavirus 229E, UniProt P19741); experiment: Bacterial bio-assay for 229E-CoV E-protein; conditions: halo of growth score; E. coli expressing E protein at 37° C.
Vpu protein = Vpu protein (Human immunodeficiency virus type 1 group M subtype B, UniProt P05919); conditions: halo of growth score between zero and six; XL1-blue E. coli with pPL-Vpu, no adenine, 37° C.

Structure (SMILES)	Percent reduction in Plaque number/# experiments (MHV (strain MHV-A59); 10 uM)	Percent reduction in Plaque number/# experiments (MHV (strain MHV-A59); 20 uM)	SARS E protein Inhibition (score/# of times tested) (SARS-CoV E protein)	229E E protein Inhibition (score) (229E-CoV E-protein)	Vpu Inhibition (score/# of times tested) (Vpu protein)	Percent reduction in Plaque number/# experiments (MHV (strain MHV-A59); 1 uM)	Toxic (noted in place of plaque reduction) (MHV (strain MHV-A59); 20 uM)
N=C(N)NC(=O)/C=C/c1ccccc1F [2-fluorocinnamoylguanidine]	73/1%	76/1%	0.63/1 score	0.4 score	2.1/2 score	–	–
Cc1ccccc1/C=C/C(=O)NC(=N)N [2-methylcinnamoylguanidine]	82/1%	91/1%	1.00/1 score	0.5 score	3.1/2 score	20/1%	–
NC(N)=NC(=O)c1ccc2ccccc2c1 [2-napthoylguanidine]	36/2%	67/2%	1.38/2 score	0.3 score	2.7/11 score	34/2%	–
N=C(N)NC(=O)/C=C/c1ccc2ccccc2c1 [3-(2-napthyl)acryloylguanidine]	93/1%	93/1%	3.88/1 score	3.0 score	1.56/2 score	40/1%	–
N=C(N)NC(=O)/C=C/c1cccc(F)c1 [3-fluorocinnamoylguanidine]	93/2%	100/1%	1.50/1 score	0.5 score	1.9/2 score	31/1%	–
N=C(N)NC(=O)/C=C/c1cccc(-c2ccccc2)c1 [3-phenylcinnamoylguanidine]	86/2%	–	3.13/1 score	2.9 score	2.54/3 score	64/3%	Toxic
CC(C)(C)c1cccc(/C=C/C(=O)NC(=N)N)c1 [3-t-butylcinnamoylguanidine]	94/3%	–	2.00/1 score	3.9 score	2.06/2 score	49/2%	Toxic
N=C(N)NC(=O)/C=C/c1ccc(C(F)(F)F)cc1 [4-(trifluoromethyl)cinnamoylguanidine]	95/3%	97/3%	2.75/1 score	2.3 score	2.2/2 score	46/3%	–
CCOc1ccc(/C=C/C(=O)NC(=N)N)cc1 [4-ethoxycinnamoylguanidine]	92/1%	96/1%	2.48/2 score	0.1 score	0.69/2 score	40/1%	–
N=C(N)NC(=O)/C=C/c1ccc(F)cc1 [4-fluorocinnamoylguanidine]	83/1%	86/1%	1.25/1 score	0.4 score	1.1/2 score	20/1%	–
Cc1ccc(/C=C/C(=O)NC(=N)N)cc1 [4-methylcinnamoylguanidine]	89/1%	93/1%	1.25/1 score	0.3 score	2.1/2 score	20/1%	–
N=C(N)NC(=O)/C=C/c1ccc(-c2ccccc2)cc1 [4-phenylcinnamoylguanidine]	36/1%	53/1%	2.75/2 score	1.0 score	1.1/2 score	21/3%	–
N=C(N)NC(=O)/C=C/C=C/c1cccc(Br)c1 [5-(3′-bromophenyl)penta-2,4-dienoylguanidine]	99/2%	–	0.5/1 score	0.3 score	2.5/2 score	66/1%	–
NC(N)=NC(=O)c1nc(Cl)c(Nc2ccc(F)cc2)nc1N [5-(4-fluorophenyl)amiloride]	25/1%	4/1%	1.38/1 score	1.8 score	0.4/6 score	16/1%	–
CN(C)c1nc(N)c(C(=O)N=C(N)N)nc1Cl [5-(N,N-Dimethyl)amiloride hydrochloride]	7/4%	42/4%	1.38/2 score	1.3 score	0.1/2 score	17/4%	–
N=C(N)NC(=O)/C=C/c1cc(Br)ccc1F [5-bromo-2-fluorocinnamoylguanidine]	81/2%	–	2.00/1 score	1.4 score	3.5/2 score	31/1%	Toxic
CC(C)(C)Nc1nc(N)c(C(=O)N=C(N)N)nc1Cl [5-tert-butylamino-amiloride]	84/4%	89/4%	2.01/2 score	0.3 score	0.2/7 score	34/4%	–
COc1ccccc1/C=C/C(=O)NC(=N)N [(2-Methoxycinnamoyl)guanidine]	85/2%	90/2%	0.69/2 score	1.1 score	1.7/4 score	23/2%	–
N=C(N)NC(=O)/C=C/c1cccc(Cl)c1 [(3-Chlorocinnamoyl)guanidine]	86/2%	94/1%	3.87/3 score	0.8 score	4.38/4 score	39/2%	–
COc1cccc(/C=C/C(=O)NC(=N)N)c1 [(3-Methoxycinnamoyl)guanidine]	87/2%	92/2%	0.63/2 score	1.4 score	1.52/6 score	37/3%	–
N=C(N)NC(=O)/C=C/c1cccc([N+](=O)[O-])c1 [(3-Nitrocinnamoyl)guanidine]	77/3%	95/2%	1.51/2 score	0.1 score	0.9/1 score	42/3%	–

From US11192863B2, “Antiviral compounds and methods” (Biotron Limited, priority 2003, dated 2021)
